Results on 1 substance are retold here after US10058619B2, “P97-polynucleotide conjugates” (biOasis Technologies, Inc., priority 2014, dated 2018).

Series [1] can be described thus: Brain delivery of AF680-labeled test molecules after IV injection, 3D confocal microscopy of brain sections. Format: in vivo, Balb/c mice. Here is the method: Test molecules were intravenously injected (via tail vein) in Balb/c mice and 1 hour later the animals were sacrificed as follows: Prior to euthanasia, mice were injected (i.v.) with tomato Lectin-Texas Red ([…]) for 10 min to stain the brain vasculature. Blood was cleared by intracardiac perfusion of 10 ml heparinized saline (1 ml/min). Brains were excised and frozen on dry ice and stored at −80° C. Brains were mounted in Tissue Tek and sectioned ([…], 3 sections/brain) with a cryostat at −2° C. Sections (n=3/brain) were mounted on Superfrost Plus microscope slides, fixed in cold Acetone/MeOH (1:1) for 10 min at RT, and then washed with PBS. Glass coverslips were mounted on sections using Prolong Gold antifade reagent with DAPI (Molecular probes, P36931). 3D confocal microscopy was performed (4 random fields per section were captured).
Signals for all the sections were calibrated with respect to the PBS control group in order to observe only minimal (but not completely null) AF680 fluorescent signal in those sections (see FIG. 4A).

Series [2] relates to mouse model of middle cerebral artery occlusion (MCAO). The series is described as follows: Infarct volume analysis (TTC staining) in mouse model of middle cerebral artery occlusion (MCAO). Format: in vivo, C57/Bl6 mice. Particulars: pretreated 3 times with 30 mg/kg IV, 1 hour MCAO, 24 hours post reperfusion. The procedure:
The NOX4 gene-targeted p97-siRNA conjugates from Example 1 were tested for their ability to provide neuroprotection in a mouse model of middle cerebral artery occlusion (MCAO) (see, e.g., Chang et al., J Vis Exp. 2761:2011; Althenhöfer et al., Cell. Mol. Life Sci. 69:2327-2343, 2012; and Kleinschnitz et al., PLoS Biol. 8(9):e1000479, 2010).
C57/Bl6 mice were pretreated 3 times (1 hour interval between each injection) with either PBS or 30 mg/kg of siRNA alone or p97-siRNA via intravenous (IV) injection. Animals were subjected to stroke via MCAO about 1 hour following the last injection, as follows. The external and internal carotid arteries (ECA and ICA, respectively) were dissected and isolated and the common carotid artery (CCA) ligated. An […] 8-0 nylon thread coated in dental silicone was inserted into a small hole in the ECA towards the bifurcation of the CCA. […]
When the TTC staining was completed, infarct size was measured by a colorimetric staining method. […]
Absorbance was measured at 485 nm in a spectrophotometer and the values were averaged. Percentage loss in brain TIC staining in the ischemic side of the brain was compared with the contralateral side of the brain of the same animal using the following equation: % loss=100×(1−absorbance of ischemic hemisphere/absorbance of contralateral hemisphere)

Consider “siRNA^AF680: negative control: unconjugated NOX4 antisense strand annealed to the AF680-labeled sense strand (antisense AUGUUCACAAAGUCAGGUCTT; sense GACCUGACUUUGUGAACAUTT; sense strand linked to Alexa Fluor 680 via linker, end not given here, further chemistry not given here)”, for which the “AF680 signal in the vasculature” value in series [1] (10.0 mg/kg IV via tail vein, 1 h, Balb/c mice, brain sections) is listed as “no AF680 signal was observed”. Besides, the “perinuclear AF680 signal in the brain parenchyma” value in series [1] (10.0 mg/kg IV via tail vein, 1 h, Balb/c mice, signals calibrated to PBS control) is given as “not detected”. Moreover, the “AF680 (red) staining in brain tissues (immunofluorescence imaging, FIGS. 4A-4D)” value in series [1] (mice, following intravenous administration) was “no AF680 (red) staining”. Moreover, the “infarct areas / infarct volume in the brain” value in series [2] was “large infarct areas”.
